The structures appear in SMILES notation. Where two headings read alike, the source gives them in different places. Square brackets hold non-standard residues; d marks the D form. Peptide text beside a SMILES is read from it. * marks the point of attachment. Boc = CC(C)(C)OC(=O)*

The results in this text go back to US20210198647A1, “Enhancers of Neurolysin Activity” (Texas Tech University System, priority 2018, published 2021).

One assay has as its target T1, Neurolysin (Nln) (Rattus norvegicus, UniProt P42676).
T1 construct: polyhistidine (N); made in house; host or cells: Escherichia coli (pBAD/His vector), if the rat enzyme of b61 was used
Description: Nln activation in isolated enzyme assay (A50, Amax). It counts as biochemical. Conditions: for EC50: read-out: A50 (concentration required to activate Nln by 50%).

Assay [1] addresses T2, rat recombinant neurolysin (Rattus norvegicus, UniProt P42676).
T2 construct: polyhistidine (N); made in house; host or cells: Escherichia coli (pBAD/His vector)
Description: Enzymatic assay: QFS hydrolysis by rat recombinant neurolysin. It counts as biochemical. Conditions: QFS 25 μM, compared to vehicle control; for % activity at 10: 10 μM compound; for % activity at (100): 100 μM compound. On the procedure: Rat recombinant neurolysin—N-terminal polyhistidine tagged recombinant rat neurolysin was produced in Escherichia coli using a plasmid construct in pBAD/His vector system (Invitrogen) kindly provided by Dr. David W. Rodgers (University of Kentucky) (32,33). Bacterial culture was carried out in Terrific Broth in 2 L Erlenmeyer flasks using an incubator shaker (1-2400, New Brunswick Scientific). Expression was induced by addition of arabinose (1 mM final concentration), the cells were pelleted 3 h after induction and stored at −80° C. freezer. Bacterial pellets were resuspended and lysed in phosphate buffer (20 mM NaH2PO4, 500 mM NaCl, 0.05% Tween-20, pH 8.0) containing 0.25 mg/ml lysozyme, 1 mM phenylmethylsulfonyl fluoride, 0.05 mg/ml DNAse and 0.02 mg/ml RNase, followed by brief sonication. After centrifugation (40,000×g, 20 min at 4° C.) the supernatant was applied to a Ni-NTA Superflow cartridge (Qiagen), followed by washing and elution of recombinant neurolysin with phosphate buffer containing 25 and 250 mM imidazole, respectively. The eluted protein was further purified by size exclusion chromatography using a TSK gel BioAssist G2SWxl column (Tosoh bioscience) in AKTA Purifier FPLC system (GE Healthcare). […] Specific activity of recombinant neurolysin was determined by an enzymatic assay described below.
All assays were initiated by addition of QFS (100 μl assay volume in 96-well plates), and each experimental sample was present in duplicate.
In all experiments, test compounds were incubated with neurolysin for 10 min at 37° C. before addition of the substrate to start the reaction. All test compounds were dissolved in DMSO at 10 to 50 mM stock concentrations.
Statistical Analyses—statistical analyses and curve fitting were conducted with GraphPad Prism 6.0 software. For each enzymatic reaction, slope of the line which represents the initial velocity (Vo) for the reaction progress curve was calculated using the liner regression model of the software (Vo=Slope=Δ fluorescent intensity of the reaction product/Δ time). EC50 values for the modulators were calculated by fitting initial velocity values for hydrolysis of QFS by neurolysin in the presence of varying concentrations of a modulator into a nonlinear regression model for the three-parameter log(stimulator) vs. response equation [Y=Bottom+(Top−Bottom)/(1+10^((Log EC50−X)))].

The mark [2] stands for this setting: 100% = normal enzyme turnover, 95% CI in parentheses.

T1 sequence (P42676 38-704): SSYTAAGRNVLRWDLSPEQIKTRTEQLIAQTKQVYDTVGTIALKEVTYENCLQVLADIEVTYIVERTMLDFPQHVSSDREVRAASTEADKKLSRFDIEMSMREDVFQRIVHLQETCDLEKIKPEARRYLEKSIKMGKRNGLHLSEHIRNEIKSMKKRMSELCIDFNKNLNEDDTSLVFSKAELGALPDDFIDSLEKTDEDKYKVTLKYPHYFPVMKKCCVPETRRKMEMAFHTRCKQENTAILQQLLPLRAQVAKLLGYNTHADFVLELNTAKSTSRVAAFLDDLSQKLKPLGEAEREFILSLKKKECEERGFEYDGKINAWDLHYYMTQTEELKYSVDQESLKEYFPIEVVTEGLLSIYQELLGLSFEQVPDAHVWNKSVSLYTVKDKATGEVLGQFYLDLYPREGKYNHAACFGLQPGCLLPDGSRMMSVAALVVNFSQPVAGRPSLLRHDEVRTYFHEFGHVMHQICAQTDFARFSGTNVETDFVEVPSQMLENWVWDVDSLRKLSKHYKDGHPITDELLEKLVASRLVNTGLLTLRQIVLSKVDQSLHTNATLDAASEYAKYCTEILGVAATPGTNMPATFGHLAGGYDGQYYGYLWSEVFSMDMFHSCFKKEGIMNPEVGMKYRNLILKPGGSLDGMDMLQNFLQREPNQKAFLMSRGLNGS
T2 sequence (P42676 38-704): as above

As for `N[C@H](Cc1c[nH]cn1)C(=O)Nc1cccc2cccnc12` [Compound 11b, (R)-2-amino-3-(1H-imidazol-4-yl)-N-(quinolin-8-yl)propanamide], the “Amax (maximum % activation achieved)” value on Neurolysin (Nln) (setting [2]) is 255.2 (239.9 to 278.9) %. As to `CC1CN(CCCN)C(C)CN1CCCN` (stereo not drawn) [Compound 14541], in assay [1], the “% activity at 10” value is given as 97% and the “% activity at (100)” value was 103%.

On to `CN1CCC(O)(c2ccccc2)C(CCC(=O)N2CCCC2)C1.Cl` (stereo not drawn) [Compound 15180], for which, in assay [1], the “% activity at 10” value is listed as 102% and the “% activity at (100)” value came out at 95%. On to `O=C(O)C1C2C=CC(O2)C1C(=O)NCCCN1CCOCC1` (stereo not drawn) [Compound 47096], for which, in assay [1], the “% activity at 10” value amounted to 101% and the “% activity at (100)” value amounted to 111%. Taken in the same sequence, the figures for `CC(NCCN1CCCC1)C(O)c1ccc(O)c(O)c1.Cl` (stereo not drawn) [Compound 48778] were 89% and 84%.

With `COCN1CCC2N(COC)CCC3N(COC)CCC1N23` (stereo not drawn) [Compound 82001], in assay [1], the “% activity at 10” value amounted to 105% and the “% activity at (100)” value came to 100%. Taken in the same sequence, the figures for `O=P1(NCC2CCCO2)OCC2(CO1)COP(=O)(NCC1CCCO1)OC2` (stereo not drawn) [Compound 88659] were 100% and 100%. Taken in the same sequence, the figures for `NCC(=O)N1CCC[C@H]1C(=O)NCC(=O)NCC(=O)O` [Compound 89624] (H-GPGG-OH) were 102% and 38%. Taken in the same sequence, the figures for `CCOCCOCCN1CNc2nc(N)[nH]c(=O)c2C1` [Compound 92597] were 105% and 98%. In the case of `CN(CCc1cnc2nc(N)[nH]c(=O)c2n1)c1ccc(C(=O)O)cc1` [Compound 121184], in assay [1], the “% activity at 10” value is listed as 77% and the “% activity at (100)” value was 18%. For `CNCCc1cn(C2OC(CO)C(O)C(O)C2O)cn1` (stereo not drawn) [Compound 131922], in that order: 96% and 28%. With `N#CC(C#N)N=Nc1ccc(S(=O)(=O)N=C(N)N)cc1` [Compound 134119], in assay [1], the “% activity at 10” value stood at 83% and the “% activity at (100)” value came to 41%. Taken in the same sequence, the figures for `Clc1cc(Cl)c(C[N+]23CN4CN(CN(C4)C2)C3)cc1Cl.[Cl-]` [Compound 155877] were 82% and 4%.

Take `CC1(C)SC(C(NC(=O)Cc2ccccc2)C(=O)O)NC1C(=O)O` (stereo not drawn) [Compound 163084]: in assay [1], the “% activity at 10” value is 103% and the “% activity at (100)” value was 102%. In the case of `S=C(NCN1CCNCC1)C(=S)NCN1CCNCC1` [Compound 203396], in assay [1], the “% activity at 10” value came to 102% and the “% activity at (100)” value amounted to 106%.

With `COC1OC2COC(c3ccccc3)OC2C(N=Cc2ccccc2)C1O` (stereo not drawn) [Compound 210826], in assay [1], the “% activity at 10” value is on record as 101% and the “% activity at (100)” value is given as 105%. Taken in the same sequence, the figures for `COc1ccc2c(c1)c(=O)c(C(=O)O)cn2CCCOc1ccc([N+](=O)[O-])cc1` [Compound 211002] were 104% and 100%. Taken in the same sequence, the figures for `Cc1cn(C(C=O)OC(C=O)CO)c(=O)[nH]c1=O` (stereo not drawn) [Compound 266752] were 107% and 97%. For `CCCCCCN(C)C12CN3CN(CN(C3)C1)C2` [Compound 281707], in that order: 109% and 113%. On to `CC1(C)CC(=O)C(CC(=O)c2ccccc2)=C(NN=C(N)N)C1` [Compound 282137], for which, in assay [1], the “% activity at 10” value turned out to be 106% and the “% activity at (100)” value was 94%. For `NCCCNCCSP(=O)(O)O` [Compound 296961], in that order: 106% and 127%. For `NCC(SSC(CN)C(=O)O)C(=O)O` (stereo not drawn) [Compound 302851], in that order: 104% and 80%. Taken in the same sequence, the figures for `CC(C)CC(NC(=O)C(N)CC(=O)O)C(=O)O` (stereo not drawn) [Compound 332636] (H-Asp-Leu-OH; configuration not given here) were 103% and 64%. On to `CC(C)CC(NC(=O)C(C)N)C(=O)NCC(=O)O` (stereo not drawn) [Compound 333568], for which, in assay [1], the “% activity at 10” value was determined as 106% and the “% activity at (100)” value is listed as 77%. For `Cl.NC(=O)C(Cc1ccc(O)cc1)NC(=O)C(N)Cc1c[nH]c2ccccc12` (stereo not drawn) [Compound 339919] (H-Trp-Tyr-NH2; configuration not given here), in that order: 100% and 63%. For the molecule `O=C1NC(Cc2c[nH]cn2)C(=O)N2CCCC12` (stereo not drawn) [Cyclo(His-Pro)], the “A50 (concentration required to activate Nln by 50%)” value on Neurolysin (Nln) (95% CI in parentheses) is reported as “Inactive”. Also, the “Amax (maximum % activation achieved)” value at Neurolysin (Nln) (setting [2]) was “Inactive”.

`N[C@@H](Cc1c[nH]cn1)C(=O)NCCc1ccc(F)cc1` [DF-2-2B]: at Neurolysin (Nln) (95% CI in parentheses), the EC50 stood at 27.9 µM. The “Amax (maximum % activation achieved)” value at Neurolysin (Nln) (setting [2]) is recorded as 323.1 (311.4 to 335.6) %. As to `N[C@@H](Cc1c[nH]cn1)C(=O)NCc1ccccc1` [DF-3-2B], on Neurolysin (Nln), the “Amax (maximum % activation achieved)” value is on record as 152.2 (137.3 to 171.5) %. Turning to `N[C@@H](Cc1c[nH]cn1)C(=O)NCc1ccc(F)cc1` [DF-6-2A], at Neurolysin (Nln), the “Amax (maximum % activation achieved)” value is given as 252 (235.6 to 270.5) %. The same measure, in the same setting: to `N[C@@H](Cc1c[nH]cn1)C(=O)NCc1ccc(C(F)(F)F)cc1` [DF-8-2] belongs 305.2 (285.3 to 328) %. Regarding `N[C@@H](Cc1c[nH]cn1)C(=O)NCc1ccc2ccccc2c1` [DF-9-2], on Neurolysin (Nln) (95% CI in parentheses), the EC50 amounted to 12.3 µM. On Neurolysin (Nln) (setting [2]), the “Amax (maximum % activation achieved)” value is 262.3 (246.7 to 279.4) %. Consider `N[C@@H](Cc1c[nH]cn1)C(=O)NCc1ccccc1C(F)(F)F` [DF-10-2], for which the “Amax (maximum % activation achieved)” value on Neurolysin (Nln) was 334 (313.7 to 357.2) %. In the case of `N[C@H](Cc1c[nH]cn1)C(=O)NCCc1ccccc1C(F)(F)F` [HP2CF3], on Neurolysin (Nln), the “Amax (maximum % activation achieved)” value is recorded as 396.2 (384.5 to 408.5) %. With `N[C@H](C(=O)N1CCC[C@H]1C(=O)O)c1c[nH]cn1` [His-Pro], the “Amax (maximum % activation achieved)” value on Neurolysin (Nln) is 502 (488.4 to 515.7) %. Consider `CC(C)(C)OC(=O)N[C@@H](Cc1c[nH]cn1)C(=O)N[C@H](Cc1ccccc1)C(=O)O` [NK-61-2A] (Boc-His-[dF]-OH), for which the “A50 (concentration required to activate Nln by 50%)” value at Neurolysin (Nln) (95% CI in parentheses) is “Inactive”. Further, on Neurolysin (Nln) (setting [2]), the “Amax (maximum % activation achieved)” value is “Inactive”. As to `N[C@@H](Cc1c[nH]cn1)C(=O)NCCc1ccccc1` [NK-61-4A], the “Amax (maximum % activation achieved)” value on Neurolysin (Nln) (setting [2]) is reported as 231 (216.2 to 248.9) %.

Consider `CC(C)(C)OC(=O)N[C@@H](Cc1c[nH]cn1)C(=O)NCCc1cc2ccccc2[nH]1` [PT-1-172], for which, on Neurolysin (Nln) (95% CI in parentheses), the “A50 (concentration required to activate Nln by 50%)” value is recorded as “Inactive”. Also, the “Amax (maximum % activation achieved)” value on Neurolysin (Nln) (setting [2]) is listed as “Inactive”. As for `O=C(CCc1cnc[nH]1)NCCc1c[nH]c2ccccc12` [PT-1-177], at Neurolysin (Nln) (95% CI in parentheses), the “A50 (concentration required to activate Nln by 50%)” value is listed as “Inactive”. For the same molecule, the “Amax (maximum % activation achieved)” value at Neurolysin (Nln) (setting [2]) is reported as “Inactive”. As to `COc1cccc(CCNC(=O)[C@H](N)Cc2c[nH]cn2)c1` [SR15-1d], the “Amax (maximum % activation achieved)” value on Neurolysin (Nln) (setting [2]) is recorded as 255.3 (230.5 to 284.8) %. Take `COc1ccccc1CNC(=O)[C@H](N)Cc1c[nH]cn1` [SR16-1d]: the “Amax (maximum % activation achieved)” value on Neurolysin (Nln) was 324.9 (304 to 349) %. The same measure, in the same setting: with `N[C@@H](Cc1c[nH]cn1)C(=O)NCCc1ccc2ccccc2c1` [SR18-1] the figure was 323.7 (310.3 to 337.9) %; with `N[C@H](Cc1c[nH]cn1)C(=O)NCCc1ccc2ccccc2c1` [SR19-2d], 339.8 (325.4 to 355.4) %. Turning to `COc1ccc(CNC(=O)[C@@H](N)Cc2c[nH]cn2)cc1` [SR20-1d], the “Amax (maximum % activation achieved)” value at Neurolysin (Nln) is given as 428.8 (373 to 523.5) %. `N[C@@H](Cc1c[nH]cn1)C(=O)N1CCCC1` [SR-5-3d]: the “Amax (maximum % activation achieved)” value at Neurolysin (Nln) (setting [2]) was 173 (158.5 to 194.1) %.

Consider `N[C@@H](Cc1c[nH]cn1)C(=O)NCCc1cc2ccccc2[nH]1` [SR-7-2d], for which the “Amax (maximum % activation achieved)” value on Neurolysin (Nln) is 259 (240.7 to 281) %. Still for that read-out and setting: to `N[C@H](Cc1c[nH]cn1)C(=O)NCCc1cc2ccccc2[nH]1` [SR-8-2d] belongs 132 (122.5 to 143.6) %.

For the molecule `N[C@@H](Cc1c[nH]cn1)C(=O)NCc1cccc2ccccc12` [SR-9-1d], the “Amax (maximum % activation achieved)” value on Neurolysin (Nln) (setting [2]) is listed as 264 (256.3 to 272.6) %. Still for that read-out and setting: to `N[C@H](Cc1c[nH]cn1)C(=O)NCc1cccc2ccccc12` [SR-10-1d] belongs 343 (325.2 to 363.5) %.
